How the values were obtained:
Assay in all cases: Test for adequate preservation (European Pharmacopea), 1,2-diols and 1,2-diol mixtures in O/W emulsion
Assay type in all cases: cell-based
[1] = tested on: Candida albicans ATCC 10231; conditions: 3% diol(s) in O/W emulsion
Description: (§1) A test for adequate preservation was carried out in accordance with the European Pharmacopea. The test thus consists of the contamination of the formulation, if possible in its final ratio, with a prescribed inoculum of suitable microorganisms, storage of the inoculated formulation at a specific temperature, taking of samples from the vessel at specific intervals and determination of the number of microorganisms in the samples taken in this way. The preserving properties are adequate if, under the conditions of the test, there is a distinct reduction or optionally no increase in the germ count in the inoculated formulations after the prescribed times at the prescribed temperatures. Experimental details of the test procedure are described in the European Pharmacopea (ISBN 3-7692-2768-9; 2001 supplement to the 3rd Edition, page 421-422, chapter 5.1.3). The initial germ count (CFU/g; “0” value) was in the range of 240,000 to 300,000 in the various test series. For the tests for adequate preservation, (a) potentially synergistically active mixtures taken into account and (b), for comparison purposes, the corresponding unmixed 1,2-diols were incorporated in O/W emulsions. […] The variation in the total concentration of 1,2-diols or 1,2-diol mixtures in the O/W emulsions was compensated for by increasing or reducing the water content, so that otherwise identical formulations always comprised 100 parts by weight in total.

[2] = tested on: Escherichia coli ATCC 8739; conditions: 3% diol(s) in O/W emulsion
Description: as §1

[3] = tested on: Staphylococcus aureus ATCC 6538; conditions: 3% diol(s) in O/W emulsion
Description: as §1

[4] = tested on: Pseudomonas aeruginosa ATCC 9027; conditions: 3% diol(s) in O/W emulsion
Description: as §1

[5] = tested on: Aspergillus niger ATCC 16404; conditions: for germ count A. niger: 3% diol(s) in O/W emulsion; for reduction in the number of colony forming units (CFU) to the 0 value: Aspergillus niger, dosage of 3%, 28 days
Description: A test for adequate preservation was carried out in accordance with the European Pharmacopea. The test thus consists of the contamination of the formulation, if possible in its final ratio, with a prescribed inoculum of suitable microorganisms, storage of the inoculated formulation at a specific temperature, taking of samples from the vessel at specific intervals and determination of the number of microorganisms in the samples taken in this way. The preserving properties are adequate if, under the conditions of the test, there is a distinct reduction or optionally no increase in the germ count in the inoculated formulations after the prescribed times at the prescribed temperatures. Experimental details of the test procedure are described in the European Pharmacopea (ISBN 3-7692-2768-9; 2001 supplement to the 3rd Edition, page 421-422, chapter 5.1.3). The initial germ count (CFU/g; “0” value) was in the range of 240,000 to 300,000 in the various test series. For the tests for adequate preservation, (a) potentially synergistically active mixtures taken into account and (b), for comparison purposes, the corresponding unmixed 1,2-diols were incorporated in O/W emulsions. […] The variation in the total concentration of 1,2-diols or 1,2-diol mixtures in the O/W emulsions was compensated for by increasing or reducing the water content, so that otherwise identical formulations always comprised 100 parts by weight in total. […] The Kull equation enables the pure substances and the active compound mixtures prepared therefrom to be compared in respect of their antimicrobial activity. With this equation the so-called synergy index (SI), which is a measure for a synergistic activity, but also for a possible antagonistic activity, of a mixture having an antimicrobial action, is determined. A synergistic effect is evident if the SI value determined is less than 1. On the other hand, if an SI of precisely 1 is calculated, there is a pure additive effect of two substances having an antimicrobial action. In the case of an SI value greater than 1, on the other hand, there is a (frequently undesired) antagonistic effect.

SMILES | germ count C. albicans ([1]; 0′-count (initial germ count)) | germ count C. albicans ([1]; 24 h) | germ count C. albicans ([1]; 48 h) | germ count C. albicans ([1]; 4 d) | germ count C. albicans ([1]; 7 d) | germ count C. albicans ([1]; 14 d) | germ count C. albicans ([1]; 28 d) | germ count E. coli ([2]; 0′-count (initial germ count)) | germ count E. coli ([2]; 24 h) | germ count E. coli ([2]; 48 h) | germ count E. coli ([2]; 4 d) | germ count E. coli ([2]; 7 d) | germ count E. coli ([2]; 14 d) | germ count E. coli ([2]; 28 d) | germ count Staph. aureus ([3]; 0′-count (initial germ count)) | germ count Staph. aureus ([3]; 24 h) | germ count Staph. aureus ([3]; 48 h) | germ count Staph. aureus ([3]; 7 d) | germ count Staph. aureus ([3]; 14 d) | germ count Staph. aureus ([3]; 28 d) | further results
CCCCCCCCC(O)CO (centres unmarked) [DE 3, 1,2-decanediol] | 320,000 CFU/ml | 3,500 CFU/ml | 0 CFU/ml | 0 CFU/ml | 0 CFU/ml | 0 CFU/ml | 0 CFU/ml | 350,00 CFU/ml | 0 CFU/ml | 0 CFU/ml | 0 CFU/ml | 0 CFU/ml | 0 CFU/ml | 0 CFU/ml | 350,000 CFU/ml | 3,200 CFU/ml | 0 CFU/ml | 0 CFU/ml | 0 CFU/ml | 0 CFU/ml | germ count Ps. aeruginosa ([4]; 0′-count (initial germ count)): 360,000 CFU/ml; germ count Ps. aeruginosa ([4]; 24 h): 2,600 CFU/ml; germ count Ps. aeruginosa ([4]; 7 d): 20.0 mill; germ count Ps. aeruginosa ([4]; 14 d): 15.0 mill; germ count Ps. aeruginosa ([4]; 28 d): 11.8 mill; germ count A. niger ([5]; 0′-count (initial germ count)): 250,000 CFU/ml; germ count A. niger ([5]; 24 h): 73,000 CFU/ml; germ count A. niger ([5]; 48 h): 160,000 CFU/ml; germ count A. niger ([5]; 4 d): 100,000 CFU/ml; germ count A. niger ([5]; 7 d): 100,000 CFU/ml; germ count A. niger ([5]; 14 d): 73,000 CFU/ml; germ count A. niger ([5]; 28 d): 73,000 CFU/ml; reduction in the number of colony forming units (CFU) to the 0 value [5]: did not enable a reduction in the number of colony forming units (CFU) to the desired 0 value
CCCC(O)CO (centres unmarked) [PE3, 1,2-pentanediol] | 250,000 CFU/ml | 245,000 CFU/ml | 73,000 CFU/ml | 28,000 CFU/ml | 23,000 CFU/ml | <100 CFU/ml | 0 CFU/ml | 300,000 CFU/ml | 300,000 CFU/ml | 145,000 CFU/ml | 100,000 CFU/ml | 40,000 CFU/ml | 500 CFU/ml | 0 CFU/ml | 240,000 CFU/ml | 100,000 CFU/ml | 12,000 CFU/ml | 0 CFU/ml | 0 CFU/ml | 0 CFU/ml | germ count Ps. aeruginosa ([4]; 0′-count (initial germ count)): 290,000 CFU/ml; germ count Ps. aeruginosa ([4]; 24 h): 145,000 CFU/ml; germ count Ps. aeruginosa ([4]; 48 h): 12,000 CFU/ml; germ count Ps. aeruginosa ([4]; 4 d): 0 CFU/ml; germ count Ps. aeruginosa ([4]; 7 d): 0 CFU/ml; germ count Ps. aeruginosa ([4]; 14 d): 0 CFU/ml; germ count Ps. aeruginosa ([4]; 28 d): 0 CFU/ml; germ count A. niger ([5]; 0′-count (initial germ count)): 260,000 CFU/ml; germ count A. niger ([5]; 24 h): 180,000 CFU/ml; germ count A. niger ([5]; 48 h): 180,000 CFU/ml; germ count A. niger ([5]; 4 d): 180,000 CFU/ml; germ count A. niger ([5]; 7 d): 140,000 CFU/ml; germ count A. niger ([5]; 14 d): 140,000 CFU/ml; germ count A. niger ([5]; 28 d): 100,000 CFU/ml; reduction in the number of colony forming units (CFU) to the 0 value [5]: did not enable a reduction in the number of colony forming units (CFU) to the desired 0 value
